Consider one molecule from patent US8030323B2, “Pyrazole carboxamide derivatives, pharmaceutical compositions and its preparation” (Beijing Molecule Science and Technology Co., Ltd., priority 2006, dated 2011).

The test deals with T1, CBI receptor (Rattus norvegicus, UniProt P20272).
T1 construct: Preparation of CBI receptor membrane protein in cerebellum of rat; from tissue; host or cells: Wistar rat cerebellum membranes
The experiment in a line: Drug and CBI receptor competition binding experiment (rat cerebellum membrane protein). The following applies: CBI receptor membrane protein from Wistar rat cerebellum; 30° C. for 1 hour; 1×10^−7 to 1×10^−11 mole concentration; read-out: antagonistic concentration of 50% (EC50) to CBI receptor. On the procedure: 2.1 Preparation of CBI receptor membrane protein in cerebellum of rat: Wistar rat, 220-260 g, female and male being not limited, was killed by cutting head, its cerebellum was separated rapidly, weighted and added to a buffer of Tris-HCl in 10 times of volume (50 mM, Tris HCl, 5 mM MgCl2.6H2O, 1 mM EDTA, 0.5% (W/V) BSA, pH 7.4), homogenized by using homogenizer at 15000 rpm/min, 30 seconds once, 5 times in total. The homogenized liquid was centrifuged at 400×g for 10 minutes, the supernatant was centrifuged at 39000×g for 10 minutes, the precipitate was collected, re-suspended with Tris-HCl buffer of pH 7.4 in 10 times of volume of the original weight, and centrifuged at 39000×g for 10 minutes, the precipitate was washed with the same buffer, and centrifuged at 39000×g for 10 minutes, the resultant precipitate was washed with Tris-HCl. […]
100 μg of receptor protein, 20 μl of the compound in Example 1 in mole concentration of 1×10^−7, 1×10^−8, 1×10^−9, 1×10^−10 and 1×10^−11, respectively were added successively, reacted at 30° C. for 1 hour, the sample was spotted on glass fiber filtration membrane, filtrated under negative pressure, washed with cold buffer for 10 times, 2 ml per time, the filtration membrane was unwatered, dried over oven, and placed in scintillation bottle, added 1 ml scintillating liquid, the radioactivity strength was detected by LS6500 scintillation counter.

T1 sequence (P20272 whole entry): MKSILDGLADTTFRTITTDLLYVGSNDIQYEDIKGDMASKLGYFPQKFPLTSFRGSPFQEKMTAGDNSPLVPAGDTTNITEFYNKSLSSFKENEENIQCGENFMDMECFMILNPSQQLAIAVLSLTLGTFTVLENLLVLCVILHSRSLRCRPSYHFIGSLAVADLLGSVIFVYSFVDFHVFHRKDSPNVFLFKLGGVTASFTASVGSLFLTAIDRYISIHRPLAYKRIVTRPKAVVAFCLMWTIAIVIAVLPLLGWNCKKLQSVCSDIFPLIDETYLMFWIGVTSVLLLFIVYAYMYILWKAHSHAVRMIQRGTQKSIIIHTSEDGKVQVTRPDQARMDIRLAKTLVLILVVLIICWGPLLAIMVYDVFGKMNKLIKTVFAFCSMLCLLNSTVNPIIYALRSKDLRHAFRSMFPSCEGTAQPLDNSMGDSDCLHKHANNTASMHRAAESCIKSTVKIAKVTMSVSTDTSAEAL

`Cc1c(C(=O)NCc2cccnc2)nn(-c2ccc(Cl)cc2Cl)c1-c1ccc(Cl)cc1` [Example 1, N-(3-aminomethyl-pyridyl)-5-(4-chlorophenyl)-1-(2,4-dichlorophenyl)-4-methyl pyrazol-3-carboxamide]: the EC50 was 130 pM.
